Patent US12458021B2, “Microbiocidal derivatives” (SYNGENTA CROP PROTECTION AG, priority 2019, dated 2025)

Legend:
[1] = test system: Blumeria graminis f. sp. tritici (Erysiphe graminis f. sp. tritici); assay: Blumeria graminis f. sp. tritici / wheat / leaf disc preventative (powdery mildew on wheat); type: in vivo; conditions: foliar, wheat leaf segments cv. Kanzler, inoculated 1 day after application, assessed 6-8 days after application, read-out: control of Blumeria graminis f. sp. tritici (percent disease control compared to untreated)
Description: Example B4: Blumeria graminis f. sp. tritici (Erysiphe graminis f. sp. tritici)/Wheat/Leaf Disc Preventative (Powdery Mildew on Wheat) Wheat leaf segments cv. Kanzler are placed on agar in a multiwell plate (24-well format) and sprayed with the formulated test compound diluted in water. The leaf disks are inoculated by shaking powdery mildew infected plants above the test plates 1 day after application. […] […]-192.

[2] = test system: Puccinia recondita f. sp. tritici; assay: Puccinia recondita f. sp. tritici / wheat / leaf disc preventative (brown rust); type: in vivo; conditions: foliar, wheat leaf segments cv. Kanzler, inoculated 1 day after application, assessed 7-9 days after application, read-out: control of Puccinia recondita f. sp. tritici, preventative (percent disease control compared to untreated)
Description: Example B11: Puccinia recondita f. sp. tritici/Wheat/Leaf Disc Preventative (Brown Rust) Wheat leaf segments cv. Kanzler are placed on agar in multiwell plates (24-well format) and sprayed with the formulated test compound diluted in water. The leaf disks are inoculated with a spore suspension of the fungus 1 day after application. The inoculated leaf segments are incubated at 19° C. and 75% rh under a light regime of 12 h light/12 h darkness in a climate cabinet and the activity of a compound is assessed as percent disease control compared to untreated when an appropriate level of disease damage appears in untreated check leaf segments (7-9 days after application). […] […]-190.

[3] = test system: Glomerella lagenarium (Colletotrichum lagenarium); assay: Glomerella lagenarium (Colletotrichum lagenarium) / liquid culture (anthracnose); type: cell-based; conditions: Colletotrichum orbiculare, PDB potato dextrose broth, 24° C., 3-4 days after application, read-out: control of Glomerella lagenarium (inhibition of growth, photometric)
Method in brief: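 Conidia from cryogenic storage suspended in potato dextrose broth and added to DMSO compound solution in plates. Incubated at 24° C; growth inhibition read photometrically 3-4 days after application.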

[4] = test system: Monographella nivalis (Microdochium nivale); assay: Monographella nivalis (Microdochium nivale) / liquid culture (foot rot cereals); type: cell-based; conditions: PDB potato dextrose broth, 24° C., 4-5 days after application, read-out: control of Monographella nivalis (inhibition of growth, photometric)
Method in brief: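 Cryostored M. nivalis conidia mixed into potato dextrose broth and added to 96-well plates holding test compound in DMSO. Incubated at 24° C; growth inhibition read photometrically 4-5 days after application.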

[5] = test system: Mycosphaerella graminicola (Septoria tritici); assay: Mycosphaerella graminicola (Septoria tritici) / liquid culture (Septoria blotch); type: cell-based; conditions: Zymoseptoria tritici, PDB potato dextrose broth, 24° C., 4-5 days after application, read-out: control of Mycosphaerella graminicola (inhibition of growth, photometric)
Method in brief: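 Conidia from cryogenic storage were mixed into potato dextrose broth and added to test compound in DMSO. Plates were incubated at 24° C, and growth inhibition was read photometrically 4-5 days after application.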

[6] = test system: Magnaporthe grisea (Pyricularia oryzae); assay: whole plant or invertebrate; type: in vivo; conditions: foliar, read-out: control of Magnaporthe grisea (percent disease control compared to untreated)

COc1ccc(Nc2cc(F)nc(F)c2)nc1C(=O)NC1(C2CCC2)CCC1 [Compound P-182, N-(1-cyclobutylcyclobutyl)-6-[(2,6-difluoro-4-pyridyl)amino]-3-methoxy-pyridine-2-carboxamide]
pest or weed control at 200 ppm [1]: ≥ 80% | pest or weed control at 200 ppm [2]: ≥ 80%

CCc1cccc(Nc2ccc(OC)c(C(=O)NCC(C)(C)C)n2)c1 [Compound P-137, N-(2,2-dimethylpropyl)-6-(3-ethylanilino)-3-methoxy-pyridine-2-carboxamide]
inhibition at 20 ppm [3]: ≥ 80% | pest or weed control at 200 ppm [2]: ≥ 80%

COc1ccc(Nc2cc(C)cc(C#N)c2)nc1C(=O)NCC(C)(C)C [Compound P-143, 6-(3-cyano-5-methyl-anilino)-N-(2,2-dimethylpropyl)-3-methoxy-pyridine-2-carboxamide]
pest or weed control at 200 ppm [2]: ≥ 80%

COc1ccc(Nc2cc(F)nc(F)c2)nc1C(=O)NC(C)C(C)C (stereo not shown) [Compound P-167, 6-[(2,6-difluoro-4-pyridyl)amino]-N-(1,2-dimethylpropyl)-3-methoxy-pyridine-2-carboxamide]
pest or weed control at 200 ppm [1]: ≥ 80% | pest or weed control at 200 ppm [2]: ≥ 80%

COc1ccc(Nc2ccnc(F)c2)nc1C(=O)NCC(C)(C)C [Compound P-136, N-(2,2-dimethylpropyl)-6-[(2-fluoro-4-pyridyl)amino]-3-methoxy-pyridine-2-carboxamide]
inhibition at 20 ppm [3]: ≥ 80% | pest or weed control at 200 ppm [2]: ≥ 80%

CC(C)(C)NC(=O)c1cccc(Nc2cc(F)nc(F)c2)n1 [Compound P-114, N-tert-butyl-6-[(2,6-difluoro-4-pyridyl)amino]pyridine-2-carboxamide]
inhibition at 20 ppm [3]: ≥ 80% | pest or weed control at 200 ppm [1]: ≥ 80% | inhibition at 20 ppm [4]: ≥ 80% | pest or weed control at 200 ppm [2]: ≥ 80% | inhibition at 20 ppm [5]: ≥ 80%

CCC1(NC(=O)c2nc(Nc3cc(F)nc(F)c3)ccc2OC)CCC1 [Compound P-183, 6-[(2,6-difluoro-4-pyridyl)amino]-N-(1-ethylcyclobutyl)-3-methoxy-pyridine-2-carboxamide]
pest or weed control at 200 ppm [1]: ≥ 80% | inhibition at 20 ppm [4]: ≥ 80% | pest or weed control at 200 ppm [2]: ≥ 80% | inhibition at 20 ppm [5]: ≥ 80%

COc1ccc(N(C#N)c2cc(F)nc(F)c2)nc1C(=O)NC1CCC1(C)C (stereo not shown) [Compound P-21, 6-[cyano-(2,6-difluoro-4-pyridyl)amino]-N-(2,2-dimethylcyclobutyl)-3-methoxy-pyridine-2-carboxamide]
pest or weed control at 200 ppm [1]: ≥ 80% | pest or weed control at 200 ppm [2]: ≥ 80% | pest or weed control at 200 ppm [6]: ≥ 80%

COc1ccc(Nc2cc(F)nc(F)c2)nc1C(=O)NC1CCc2cc(C(F)(F)F)ccc21 (stereo not shown) [Compound P-47, 6-[(2,6-difluoro-4-pyridyl)amino]-3-methoxy-N-[5-(trifluoromethyl)indan-1-yl]pyridine-2-carboxamide]
inhibition at 20 ppm [3]: ≥ 80% | inhibition at 20 ppm [4]: ≥ 80% | pest or weed control at 200 ppm [2]: ≥ 80% | pest or weed control at 200 ppm [6]: ≥ 80% | inhibition at 20 ppm [5]: ≥ 80%

COc1ccc(Nc2cc(F)nc(F)c2)nc1C(=O)NC1(C2CCCCC2)CC1 [Compound P-88, N-(1-cyclohexylcyclopropyl)-6-[(2,6-difluoro-4-pyridyl)amino]-3-methoxy-pyridine-2-carboxamide]
inhibition at 20 ppm [3]: ≥ 80% | pest or weed control at 200 ppm [2]: ≥ 80% | pest or weed control at 200 ppm [6]: ≥ 80%

COc1ccc(Nc2cc(F)nc(F)c2)nc1C(=O)NC1(C(C)C)CCC1 [Compound P-181, 6-[(2,6-difluoro-4-pyridyl)amino]-N-(1-isopropylcyclobutyl)-3-methoxy-pyridine-2-carboxamide]
pest or weed control at 200 ppm [1]: ≥ 80% | inhibition at 20 ppm [4]: ≥ 80% | pest or weed control at 200 ppm [2]: ≥ 80% | inhibition at 20 ppm [5]: ≥ 80%

COc1ccc(Nc2cc(F)nc(F)c2)nc1C(=O)NC1(C)CC1 [Compound P-92, 6-[(2,6-difluoro-4-pyridyl)amino]-3-methoxy-N-(1-methylcyclopropyl)pyridine-2-carboxamide]
pest or weed control at 200 ppm [1]: ≥ 80% | pest or weed control at 200 ppm [2]: ≥ 80%

COc1ccc(Nc2cc(F)nc(F)c2)nc1C(=O)NC(C)(C)C(C)(C)C [Compound P-174, 6-[(2,6-difluoro-4-pyridyl)amino]-3-methoxy-N-(1,1,2,2-tetramethylpropyl)pyridine-2-carboxamide]
pest or weed control at 200 ppm [2]: ≥ 80% | inhibition at 20 ppm [5]: ≥ 80%

COc1ccc(Nc2cc(F)nc(F)c2)nc1C(=O)NC(C)C(C)(C)C (stereo not shown) [Compound P-169, 6-[(2,6-difluoro-4-pyridyl)amino]-3-methoxy-N-(1,2,2-trimethylpropyl)pyridine-2-carboxamide]
pest or weed control at 200 ppm [1]: ≥ 80% | pest or weed control at 200 ppm [2]: ≥ 80%

COc1ccc(Nc2cc(F)nc(F)c2)nc1C(=O)NC1CC(c2ccc(Cl)cc2)C1 (stereo not shown) [Compound P-188]
pest or weed control at 200 ppm [2]: ≥ 80%

COc1ccc(Nc2cc(F)nc(F)c2)nc1C(=O)NCC(C)(C)C [Compound P-30, 6-[(2,6-difluoro-4-pyridyl)amino]-N-(2,2-dimethylpropyl)-3-methoxy-pyridine-2-carboxamide]
inhibition at 20 ppm [3]: ≥ 80% | pest or weed control at 200 ppm [1]: ≥ 80% | pest or weed control at 200 ppm [2]: ≥ 80% | pest or weed control at 200 ppm [6]: ≥ 80% | inhibition at 20 ppm [5]: ≥ 80%

COc1ccc(Nc2cncc(F)c2)nc1C(=O)NCC(C)(C)C [Compound P-105, N-(2,2-dimethylpropyl)-6-[(5-fluoro-3-pyridyl)amino]-3-methoxy-pyridine-2-carboxamide]
pest or weed control at 200 ppm [1]: ≥ 80% | pest or weed control at 200 ppm [2]: ≥ 80% | pest or weed control at 200 ppm [6]: ≥ 80%

COc1ccc(Nc2cc(F)nc(F)c2)nc1C(=O)NC1(c2cccc(Cl)n2)CCC1 [Compound P-184, N-[1-(6-chloro-2-pyridyl)cyclobutyl]-6-[(2,6-difluoro-4-pyridyl)amino]-3-methoxy-pyridine-2-carboxamide]
pest or weed control at 200 ppm [2]: ≥ 80%

COc1ccc(Nc2cc(F)cc(F)c2)nc1C(=O)NC1CC(c2ccc(Cl)cc2)C1 (stereo not shown) [Compound P-187, N-[3-(4-chlorophenyl)cyclobutyl]-6-(3,5-difluoroanilino)-3-methoxy-pyridine-2-carboxamide]
inhibition at 20 ppm [3]: ≥ 80% | inhibition at 20 ppm [4]: ≥ 80% | pest or weed control at 200 ppm [2]: ≥ 80% | inhibition at 20 ppm [5]: ≥ 80%

COc1ccc(Nc2cnsc2)nc1C(=O)NCc1cnc(C(F)(F)F)nc1 [Compound P-80, 6-(isothiazol-4-ylamino)-3-methoxy-N-[[2-(trifluoromethyl)pyrimidin-5-yl]methyl]pyridine-2-carboxamide]
pest or weed control at 200 ppm [2]: ≥ 80%

CC1(C)CCC1NC(=O)c1nc(Nc2cc(F)nc(F)c2)ccc1O (stereo not shown) [Compound P-1, 6-[(2,6-difluoro-4-pyridyl)amino]-N-(2,2-dimethylcyclobutyl)-3-hydroxy-pyridine-2-carboxamide]
inhibition at 20 ppm [3]: ≥ 80% | inhibition at 20 ppm [4]: ≥ 80% | pest or weed control at 200 ppm [2]: ≥ 80% | inhibition at 20 ppm [5]: ≥ 80%

COc1ccc(Nc2cc(F)nc(F)c2)nc1C(=O)NCCc1ccccc1 [Compound P-31, 6-[(2,6-difluoro-4-pyridyl)amino]-3-methoxy-N-(2-phenylethyl)pyridine-2-carboxamide]
pest or weed control at 200 ppm [2]: ≥ 80%

CC(C)(C)CNC(=O)c1cccc(Nc2cc(F)nc(F)c2)n1 [Compound P-113, 6-[(2,6-difluoro-4-pyridyl)amino]-N-(2,2-dimethylpropyl)pyridine-2-carboxamide]
inhibition at 20 ppm [3]: ≥ 80% | pest or weed control at 200 ppm [1]: ≥ 80% | inhibition at 20 ppm [4]: ≥ 80% | pest or weed control at 200 ppm [6]: ≥ 80% | inhibition at 20 ppm [5]: ≥ 80%
